Assay results taken from patent publication US7560466B2, “Methods of treating or preventing autoimmune diseases with 2,4-pyrimidinediamine compounds” (Rigel Pharmaceuticals, Inc., priority 2003, dated 2009).
Where a name gives a salt, the structure may show the parent alone. Read-outs that look alike come from different tables or passages of the source.

Test system: cultured human mast cells (CHMC), IgE-induced degranulation
Test: CHMC low cell density IgE activation: tryptase assay
Format: cell-based
Conditions: CHMC low cell density
Experimental: Inhibition of degranulation was measured at both low and high cell density by quantifying the release of the granule specific factors tryptase, histamine and hexosaminidase. Inhibition of release and/or synthesis of lipid mediators was assessed by measuring the release of leukotriene LTC4 and inhibition of release and/or synthesis of cytokines was monitored by quantifying TNF-α, IL-6 and IL-13. Tryptase and hexosaminidase were quantified using fluorogenic substrates as described in their respective examples. […] The protocols of the various assays are provided below.
A second phase is performed to convert the expanded CD34-negative progenitor cells into differentiated mucosal mast cells. These mucosal cultured human mast cells (“CHMC”) are derived from CD34+ cells isolated from umbilical cord blood and treated to form a proliferated population of CD34-negative progenitor cells, as described above. […] Also, the cytokine composition of the medium was modified such that it contained SCF (200 ng/mL) and recombinant human IL-6 (200 ng/mL; Peprotech, Catalog No. 200-06 reconstituted to 100 ug/mL in sterile 10 mM acetic acid) (“CM/SCF/IL-6 medium”).
Pellet CHMC cells (980 rpm, 10 min) and resuspend in pre-warmed MT. Add 65 ul of cells to each 96-well plate. Depending on the degranulation activity for each particular CHMC donor, load 1000-1500 cells/well. Mix four times followed by a 1 hr incubation at 37° C. […] Stimulate cells by adding 25 ul of 6× anti-IgE solution to the appropriate plates. Add 25 ul MT to un-stimulated control wells. Mix twice following addition of the anti-IgE. Incubate at 37° C. for 30 minutes. […] Spin plates at 1000 rpm for 10 min to pellet cells. Transfer 25 ul of supernatant to a 96-well black bottom plate and add 100 ul of freshly diluted tryptase substrate solution to each well. Incubate plates at room temperature for 30 min.
In Table 1, all reported values are IC50s (in μM). […] In Table 1, all reported values are IC50s (in μM).

[1] = 3pt, read-out: LD Tryptase, CHMC, IgE, 3pt
[2] = 8pt, read-out: LD Tryptase, CHMC, IgE, 8pt

| SMILES | IC50 [1] [µM] | IC50 [2] [µM] |
| --- | --- | --- |
| COc1cc(Nc2ncc(F)c(Nc3ccc4c(n3)NC(=O)C(C)(C)O4)n2)cc(OC)c1OC.O=S(=O)(O)c1cccnc1 [Compound 678, N4-(2,2-Dimethyl-3-oxo-4H-5-pyrid[1,4]oxazin-6-yl)-5-fluoro-N2-(3,4,5-trimethoxyphenyl)-2,4-pyrimidinediamine 0.5 Pyridine-3-sulfonic Acid Salt] | < 10 | < 10 |
| CCc1ccc(S(=O)(=O)O)cc1.COc1cc(Nc2ncc(F)c(Nc3ccc4c(n3)NC(=O)C(C)(C)O4)n2)cc(OC)c1OC [Compound 679, N4-(2,2-Dimethyl-3-oxo-4H-5-pyrid[1,4]oxazin-6-yl)-5-fluoro-N2-(3,4,5-trimethoxyphenyl)-2,4-pyrimidinediamine p-Ethylbenzenesulfonic Acid Salt] | < 10 | < 10 |
| CNC(=O)Cn1ccc2cc(Nc3ncc(F)c(Nc4ccc5c(n4)NC(=O)C(C)(C)O5)n3)ccc21 [Compound 683, N4-(2,2-Dimethyl-3-oxo-4H-5-pyrid[1,4]oxazin-6-yl)-5-fluoro-N2-[1-(N-methylamino)carbonylmethyleneindol-5-yl]-2,4-pyrimidinediamine] | < 10 | < 10 |
| Cc1cc(Nc2ncc(F)c(Nc3ccc4c(n3)NC(=O)C(C)(C)O4)n2)cc(C)c1Cl [Compound 684, N2-(4-Chloro-3,5-dimethylphenyl)-N4-(2,2-dimethyl-3-oxo-4H-5-pyrid[1,4]oxazin-6-yl)-5-fluoro-2,4-pyrimidinediamine p-Toluenesulfonic Acid Salt] | < 10 |  |
| CC1(C)Oc2ccc(Nc3nc(Nc4cc(Cl)c(O)c(Cl)c4)ncc3F)nc2NC1=O [Compound 686, N4-(2,2-Dimethyl-3-oxo-4H-5-pyrid[1,4]oxazin-6-yl)-N2-(3,5-dichloro-4-hydroxyphenyl)-5-fluoro-2,4-pyrimidinediamine] | < 10 | < 10 |
| CN1C(=O)C(C)(C)Oc2ccc(Nc3ncc(F)c(Nc4ccc5c(n4)N(C)C(=O)C(C)(C)O5)n3)nc21 [Compound 687, N2,N4-Bis(3-oxo-2,2,4-trimethyl-5-pyrid[1,4]oxazin-6-yl)-5-fluoro-2,4-pyrimidinediamine] | < 10 |  |
| COC(=O)CN1C(=O)C(C)(C)Oc2ccc(Nc3ccnc(Nc4ccc5c(n4)N(CC(=O)OC)C(=O)C(C)(C)O5)n3)nc21 [Compound 688, N2,N4-Bis(2,2-dimethyl-4-carbomethoxymethyl-3-oxo-5-pyrid[1,4]oxazin-6-yl)-2,4-pyrimidinediamine] | > 10 |  |
| COc1cc(Nc2ncc(F)c(Nc3ccc4c(n3)N(C)C(=O)C(C)(C)O4)n2)cc(OC)c1OC [Compound 689, 5-Fluoro-N4-(3-oxo-2,2,4-trimethyl-5-pyrid[1,4]oxazin-6-yl)-N2-(3,4,5-trimethoxyphenyl)-2,4-pyrimidinediamine] |  | < 10 |
| COC(=O)CN1C(=O)C(C)(C)Oc2ccc(Nc3nc(Nc4cc(OC)c(OC)c(OC)c4)ncc3F)nc21 [Compound 690, N4-(2,2-Dimethyl-4-carbomethoxymethyl-3-oxo-5-pyrid[1,4]oxazin-6-yl)-5-fluoro-N2-(3,4,5-trimethoxyphenyl)-2,4-pyrimidinediamine] |  | < 10 |
| COC(=O)CN1C(=O)C(C)(C)Oc2ccc(N(CC(=O)OC)c3nc(Nc4cc(OC)c(OC)c(OC)c4)ncc3F)nc21 [Compound 691, N4-(2,2-Dimethyl-4-carbomethoxymethyl-3-oxo-5-pyrid[1,4]oxazin-6-yl)-5-fluoro-N4-carbomethoxymethyl-N2-(3,4,5-trimethoxyphenyl)-2,4-pyrimidinediamine] | < 10 |  |
| COc1cc(Nc2ncc(F)c(Nc3ccc4c(n3)NC(=O)C(C)(C)O4)n2)cc(OC)c1OCCN1CCOCC1 [Compound 692, N2-[3,5-Dimethoxy-4-(2-(N-morpholino)ethyloxo)phenyl]-N4-(2,2-dimethyl-3-oxo-4H-5-pyrid[1,4]oxazin-6-yl)-5-fluoro-2,4-pyrimidinediamine] | < 10 | < 10 |
| CC1(C)Oc2ccc(Nc3ncc(F)c(Nc4ccc5c(n4)NC(=O)C(C)(C)O5)n3)nc2NC1=O [Compound 693, N2,N4-Bis(2,2-dimethyl-3-oxo-4H-5-pyrid[1,4]oxazin-6-yl)-5-fluoro-2,4-pyrimidinediamine] | < 10 |  |
| Cc1nn(C)c2cc(Nc3ncc(F)c(Nc4ccc5c(n4)NC(=O)C(C)(C)O5)n3)ccc12 [Compound 812, N2-(1,3-Dimethylindazol-6-yl)-N4-(2,2-dimethyl-3-oxo-4H-5-pyrid[1,4]oxazin-6-yl)-5-fluoro-2,4-pyrimidinediamine] |  | < 10 |
| Cc1n[nH]c2cc(Nc3ncc(F)c(Nc4ccc5c(n4)NC(=O)C(C)(C)O5)n3)ccc12 [Compound 813, N4-(2,2-Dimethyl-3-oxo-4H-5-pyrid[1,4]oxazin-6-yl)-5-fluoro-N2-(3-methyl-1H-indazol-6-yl)-2,4-pyrimidinediamine] |  | < 10 |
| COCCCn1ncc2cc(Nc3ncc(F)c(Nc4ccc5c(n4)NC(=O)C(C)(C)O5)n3)ccc21 [Compound 814, N4-(2,2-Dimethyl-3-oxo-4H-5-pyrid[1,4]oxazin-6-yl)-5-fluoro-N2-[1-(3-methoxypropyl)indazol-5-yl]-2,4-pyrimidinediamine] |  | < 10 |
| CC1(C)Oc2ccc(Nc3nc(Nc4ccc5c(cnn5CCCN5C(=O)c6ccccc6C5=O)c4)ncc3F)cc2NC1=O [Compound 817, N4-(2,2-Dimethyl-3-oxo-4H-benz[1,4]oxazin-6-yl)-5-fluoro-N2-[1-[3-(N-phthalimidopropyl)]indazol-5-yl]-2,4-pyrimidinediamine] |  | < 10 |
| C[C@@H]1Oc2ccc(Nc3nc(Nc4ccc5c(cnn5CCCN5C(=O)c6ccccc6C5=O)c4)ncc3F)cc2NC1=O [Compound 818, (S)-5-Fluoro-N4-(2-methyl-3-oxo-2H,4H-benz[1,4]oxazin-6-yl)-N2-[1-[3-(N-phthalimidopropyl)]indazol-5-yl]-2,4-pyrimidinediamine] |  | < 10 |
| Cn1nc(N)c2cc(Nc3ncc(F)c(Nc4ccc5c(n4)NC(=O)C(C)(C)O5)n3)ccc21 [Compound 837, N2-(3-A mino-1-methylindazol-5-yl)-N4-(2,2-dimethyl-3-oxo-4H-5-pyrid[1,4]oxazin-6-yl)-5-fluoro-2,4-pyrimidinediamine] | < 10 | < 10 |
| CC1(C)Oc2ccc(Nc3nc(Nc4ccc5c(cnn5CCCO)c4)ncc3F)nc2NC1=O [Compound 838, N4-(2,2-Dimethyl-3-oxo-4H-5-pyrid[1,4]oxazin-6-yl)-5-fluoro-N2-[1-(3-hydroxypropyl)indazol-5-yl]-2,4-pyrimidinediamine] | < 10 | < 10 |
| COCCCn1ncc2ccc(Nc3ncc(F)c(Nc4ccc5c(n4)NC(=O)C(C)(C)O5)n3)cc21 [Compound 839, N4-(2,2-Dimethyl-3-oxo-4H-5-pyrid[1,4]oxazin-6-yl)-5-fluoro-N2-[1-(3-methoxypropyl)indazol-6-yl]-2,4-pyrimidinediamine] | < 10 | < 10 |
| CC1(C)Oc2ccc(Nc3nc(Nc4ccc5c(cnn5CCCNS(=O)(=O)C(F)(F)F)c4)ncc3F)nc2NC1=O [Compound 844, N4-(2,2-Dimethyl-3-oxo-4H-5-pyrid[1,4]oxazin-6-yl)-5-fluoro-N2-[1-[3-(N-trifluoromethylsulfonylamino)propyl]indazol-5-yl]-2,4-pyrimidinediamine] |  | > 10 |
